Results taken from patent US20250346571A1, “BICYCLIC DERIVATIVE PARP INHIBITOR AND USE THEREOF” (XIZANG HAISCO PHARMACEUTICAL CO., LTD., priority 2022, published 2025).
Like-named read-outs stand apart in the source and are kept apart here.

Assays:
MDA-MB-436 cells = test: MDA-MB-436 cell activity test (CellTiter-Glo, 7 days); assay type: cell-based; settings: for IC50: 7 days incubation; for inhibition at 10 µM: read-out: Max inh. % 10 μM
Procedure: Breast tumor cells MDA-MB-436 were purchased from ATCC, the culture medium was Leibovitz's L-15+10% FBS, and the cells were cultured in a CO2-free incubator at 37° C. On day 1, the cells in the exponential growth phase were collected, and the cell suspension was adjusted to 4000 cells/135 μL with the culture medium. 135 μL of the cell suspension was added to each well of a 96-well cell culture plate and incubated overnight. On day 2, compounds at different concentrations were added, and the plate was placed in the incubator and incubated for 7 days. After the incubation was completed, according to operation instructions for a CellTiter-Glo kit (Promega, G7573), 75 μL of CTG solution, which was already pre-melted and equilibrated to room temperature, was added to each well, and the mixture was uniformly mixed for 2 min using a microplate shaker. The plate was placed at room temperature for 10 min, and then […] were measured using an Envision2104 plate reader (PerkinElmer). The inhibition rate was calculated using formula (1), where RLUcompound was the readout of the drug treated group, RLUcontrol was the average value of the vehicle control group, and RLUblank was the average value of the cell-free well. The IC50 value was calculated using GraphPad Prism software

PARP-1 enzyme = PARP-1 enzyme (Homo sapiens (Human), UniProt P09874); test: PARP-1 enzyme activity test (chemical fluorescence detection kit, BPS Bioscience); assay type: biochemical
Sequence of PARP-1 enzyme (P09874 whole entry): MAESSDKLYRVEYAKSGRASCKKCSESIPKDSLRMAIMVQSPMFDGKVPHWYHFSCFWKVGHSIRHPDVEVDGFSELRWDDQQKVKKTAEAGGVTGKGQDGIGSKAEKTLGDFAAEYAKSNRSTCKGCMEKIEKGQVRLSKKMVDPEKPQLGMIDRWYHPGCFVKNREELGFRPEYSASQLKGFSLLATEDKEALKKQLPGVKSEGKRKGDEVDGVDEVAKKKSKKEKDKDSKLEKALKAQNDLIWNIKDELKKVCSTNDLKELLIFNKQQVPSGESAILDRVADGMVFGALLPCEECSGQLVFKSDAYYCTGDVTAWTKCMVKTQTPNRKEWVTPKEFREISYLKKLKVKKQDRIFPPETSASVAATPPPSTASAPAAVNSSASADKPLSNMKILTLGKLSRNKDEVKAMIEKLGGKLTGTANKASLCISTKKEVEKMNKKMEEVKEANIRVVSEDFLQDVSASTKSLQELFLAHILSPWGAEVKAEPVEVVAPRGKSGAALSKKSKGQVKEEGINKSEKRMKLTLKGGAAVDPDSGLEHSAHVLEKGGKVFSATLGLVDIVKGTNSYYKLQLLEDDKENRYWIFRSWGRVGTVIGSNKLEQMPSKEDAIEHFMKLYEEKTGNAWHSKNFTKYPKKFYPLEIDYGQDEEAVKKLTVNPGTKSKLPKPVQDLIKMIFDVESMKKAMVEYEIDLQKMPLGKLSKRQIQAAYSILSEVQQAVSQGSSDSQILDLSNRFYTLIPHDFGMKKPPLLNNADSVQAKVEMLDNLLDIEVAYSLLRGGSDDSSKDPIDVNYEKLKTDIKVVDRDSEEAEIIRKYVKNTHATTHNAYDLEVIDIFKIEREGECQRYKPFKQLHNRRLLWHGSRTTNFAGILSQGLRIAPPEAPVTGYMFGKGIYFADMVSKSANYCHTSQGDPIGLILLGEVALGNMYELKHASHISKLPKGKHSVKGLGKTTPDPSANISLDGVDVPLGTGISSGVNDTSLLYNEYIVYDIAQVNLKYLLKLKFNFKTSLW
Procedure: PARP-1 chemical fluorescence detection kit was purchased from BPS Bioscience. The histone solution in the kit was diluted 5× with 1×PBS, and 25 μL of the diluted histone solution was added to a microwell plate and incubated overnight at 4° C. After the incubation, the plate was washed three times with PBST (0.05% Tween-20). 100 μL of the blocking solution was added to the microwell plate and incubated at 25° C. for 90 minutes. After the incubation was completed, the plate was washed three times with PBST. 2.5 μL of compounds at different concentrations diluted in test buffer and 12.5 μL of substrate mixed solution (1.25 μL 10×PARP test buffer; 1.25 μL 10×PARP test mixed solution; 2.5 μL Activated DNA, 7.5 μL double-distilled water) were added to the microwell plate. The PARP-1 enzyme was diluted to 2 ng/μL, […] was added to the microwell plate, and the reaction system was incubated at 25° C. for 60 minutes.
After the incubation was completed, the plate was washed three times with PBST. Streptavidin-HRP was diluted 50× with a blocking solution, and 25 μL of the diluent was added to the microwell plate and incubated at 25° C. for 30 minutes. After the incubation, the plate was washed three times with PBST. ELISA ECL substrate A and substrate B were uniformly mixed at a ratio of 1:1 (v/v), 50 μL of the mixture was added to the microwell plate, and the chemiluminescence value was read.
The inhibition rate was calculated according to formula 1, where RLUsample was the readout of the compound well, RLUmax was the readout of the solvent control well, and RLUmin was the readout of the control well without the PARP-1 enzyme. Curve fitting was performed by four parameters (log(inhibitor) vs. response—Variable slope) using GraphPad Prism software, and the ICso value was calculated.
Inhibition %=(1−(RLUsample−RLUmin)/(RLUmax−RLUmin))×100% (formula 1)

[1] = Pharmacokinetic test in mice; assay type: in vivo, Balb/c mice; settings: for pharmacokinetic characteristics in mice: conclusion in words; for Kp at 24 h / AUC(0-t) / clearance / Vd / bioavailability: male, Balb/c, mouse, mice; for Kp at 24 h: brain/plasma, 24 h after administration, read-out: Brain/Plasma Ratio (24 h); for AUC(0-t) / clearance / Vd / bioavailability: plasma; for Vd: read-out: Vdss
Procedure: 4.1 Experimental animal: male Balb/c mice, 20-25 g, 12 mice/compound, purchased from Chengdu Ddossy Experimental Animals Co., Ltd.
4.2 Experimental design: on the day of the test, 60 Balb/c mice were randomly grouped according to their body weights. The animals were fasted with water available for 12 to 14 h one day before the administration and were fed 4 h after the administration.
(§1) Before and after the administration, 0.06 mL ofblood was taken from the orbit of the animals under isoflurane anesthesia and placed in an EDTAK2 centrifuge tube. The blood was centrifuged at 5000 rpm and 4° C. for 10 min to collect plasma. The blood collection time points for the intravenous administration group and intragastric administration group were 0, 5 min, 15 min, 30 min, 1 h, 2 h, 4 h, 6 h, 8 h, and 24 h. The brain tissues were collected at 30 min, 2 h and 24 h after administration of compounds 12, 15 and 18, respectively. The brain tissues were collected 24 hours after administration of compounds 2 and 5, rinsed with cold physiological saline to remove the residual blood on the surface, drained out and then homogenized. Before analysis and detection, all samples were stored at −80° C. The samples were analyzed quantitatively by LC-MS/MS.

[2] = Pharmacokinetic test in rats; assay type: in vivo, SD rats; settings: for pharmacokinetic characteristics in rats: conclusion in words; for Kp at 24 h / AUC(0-t) / clearance / Vd / bioavailability: male, SD, rat, rats; for Kp at 24 h: brain/plasma, intravenous, 2.5 mg/kg, 24 h after administration, read-out: Brain/Plasma Ratio (24 h); for AUC(0-t) / clearance / Vd / bioavailability: plasma; for Vd: read-out: Vdss
Procedure: 3.1 Experimental animal: male SD rats, about 220 g, 6-8 weeks old, 6 rats/compound, purchased from Chengdu Ddossy Experimental Animals Co., Ltd.
3.2 Experimental design: on the day of the experiment, 30 SD rats were randomly grouped according to their body weights. The animals were fasted with water available for 12 to 14 h one day before the administration and were fed 4 h after the administration.
as §1, with “administration, 0.15 ml of blood” for “administration, 0.06 mL ofblood”, “8 h” for “8 h,”, “collected” for “collected at 30 min, 2 h and 24 h after administration of compounds 12, 15 and 18, respectively. The brain tissues were collected”, “after administration,” for “after administration of compounds 2 and 5,”

[3] = Pharmacokinetic test in monkeys; assay type: in vivo, cynomolgus monkeys
Procedure: 6.1 Experimental animal: male cynomolgus monkeys, 3-5 kg, 3-6 years old, 4 monkeys/compound, purchased from Suzhou Xishan Biotechnology Inc.
6.2 Test method: On the day of the experiment, 8 monkeys were randomly grouped according to their body weights. The animals were fasted with water available for 14 to 18 h one day before the administration, and were fed 4 h after the administration.
Before and after the administration, 1.0 mL of blood was taken from the limb veins and placed in an EDTAK2 centrifuge tube. The blood was centrifuged at 5000 rpm and 4° C. for 10 min to collect plasma. The blood collection time points for the intravenous administration group were 0, 5 min, 15 min, 30 min, 1 h, 2 h, 4 h, 6 h, 8 h, 10 h, 12 h, 24 h and 48 h. Before analysis and detection, all samples were stored at −80° C. The samples were analyzed quantitatively by LC-MS/MS.

[4] = grades, read-out: PARP-1 enzyme activity IC50
[5] = Homo sapiens, MDA-MB-436, 168 h
[6] = Homo sapiens, 10 μM, MDA-MB-436 cells
[7] = male, cynomolgus monkey, iv, monkeys, i.v. (1 mg/kg), plasma

| Compound | IC50 (PARP-1 enzyme; [4]) | pharmacokinetic characteristics in mice [1] | AUC(0-t) ([1]; iv, i.v. 2.5 mg/kg) | clearance ([1]; iv, i.v. 2.5 mg/kg) | Vd ([1]; iv, i.v. 2.5 mg/kg) | bioavailability ([1]; po, i.g. 10 mg/kg) | AUC(0-t) ([1]; po, i.g. 10 mg/kg) | IC50 (MDA-MB-436 cells; [5]) | inhibition at 10 µM (MDA-MB-436 cells; [6]) | pharmacokinetic characteristics in rats [2] | AUC(0-t) ([2]; iv, i.v. 2.5 mg/kg) | clearance ([2]; iv, i.v. 2.5 mg/kg) | Vd ([2]; iv, i.v. 2.5 mg/kg) | bioavailability ([2]; po, i.g. 10 mg/kg) | AUC(0-t) ([2]; po, i.g. 10 mg/kg) | other results |
| --- | --- | --- | --- | --- | --- | --- | --- | --- | --- | --- | --- | --- | --- | --- | --- | --- |
| 1-(difluoromethyl)-N-(5-(4-((2-(difluoroethyl(-5-fluoro-3-oxo-3,4-dihydroquinoxalin-6-yl)methyl)piperazin-1-yl)-6-fluoropyridin-2-yl)-1H-pyrazole-4-carboxamide [Compound 17] | < 5 nM | – | – | – | – | – | – | – | – | – | – | – | – | – | – | Max inh. % 10 μM (MDA-MB-436 cells; 10 μM, MDA-MB-436 cells): 72.33%; IC50 (MDA-MB-436 cells): 19.4 nM |
| Cc1nc2ccc(CN3CCN(c4ccc(C(=O)Nc5cnn(C)c5)nc4F)CC3)c(F)c2[nH]c1=O [Compound 2, 6-fluoro-5-(4-((5-fluoro-2-methyl-3-oxo-3,4-dihydroquinoxalin-6-yl)methyl)piperazin-1-yl)-N-(1-methyl-1H-pyrazol-4-yl)picolinamide] | < 5 nM | good pharmacokinetic characteristics | 1870 ± 154 ng·h/mL | 21.6 ± 1.3 mL/min/kg | 2.09 ± 0.52 L/kg | 97.4% | 7270 ± 793 ng·h/mL | 3.5 nM | 86% | – | – | – | – | – | – | Kp at 24 h [1]: 5.23; IC50 (PARP-1 enzyme; read-out: IC50 value on PARP-1): 0.79 nM |
| Cc1nc2ccc(CN3CCN(c4ccc(C(=O)N[C@@H]5C[C@@H]5F)nc4F)CC3)c(F)c2[nH]c1=O [Compound 4, 6-fluoro-5-(4-((5-fluoro-2-methyl-3-oxo-3,4-dihydroquinoxalin-6-yl)methyl)piperazin-1-yl)-N-((1R,2S)-2-fluorocyclopropyl)picolinamide] | < 5 nM | – | – | – | – | – | – | 32.8 nM | 80.1% | good pharmacokinetic characteristics | 7390 ± 663 ng·h/mL | 5.36 ± 0.068 mL/min/kg | 1.13 ± 0.071 L/kg | ≥ 98% | 33400 ± 2670 ng·h/mL | Kp at 24 h [2]: 0.315 |
| Cc1nc2ccc(CN3CCN(c4ccc(C(=O)N[C@H]5C[C@H]5F)nc4F)CC3)c(F)c2[nH]c1=O [Compound 5, 6-fluoro-5-(4-((5-fluoro-2-methyl-3-oxo-3,4-dihydroquinoxalin-6-yl)methyl)piperazin-1-yl)-N-((1S,2R)-2-fluorocyclopropyl)picolinamide] | < 5 nM | good pharmacokinetic characteristics | 2750 ± 212 ng·h/mL | 15.2 ± 1.1 mL/min/kg | 2.85 ± 0.23 L/kg | ≥ 98% | 12700 ± 817 ng·h/mL | 28 nM | 79.8% | – | – | – | – | – | – | Kp at 24 h [1]: 0.911 |
| Cc1nc2ccc(CN3CC=C(c4ccc(C(=O)Nc5cnn(C)c5)nc4F)CC3)c(F)c2[nH]c1=O [Compound 9, 2-fluoro-1′-((5-fluoro-2-methyl-3-oxo-3,4-dihydroquinoxalin-6-yl)methyl)-N-(1-methyl-1H-pyrazol-4-yl)-1′,2′,3′,6′-tetrahydro-[3,4′-bipyridine]-6-carboxamide] | – | – | – | – | – | – | – | 1.5 nM | 84.4% | – | – | – | – | – | – | – |
| Cn1cc(C(=O)Nc2ccc(N3CCN(Cc4ccc5nc(C(F)F)c(=O)[nH]c5c4F)CC3)c(F)n2)cn1 [Compound 14, N-(5-(4-((2-(difluoromethyl)-5-fluoro-3-oxo-3,4-dihydroquinoxalin-6-yl)methyl)piperazin-1-yl)-6-fluoropyridin-2-yl)-1-methyl-1H-pyrazole-4-carboxamide] | < 5 nM | – | – | – | – | – | – | 24.3 nM | 73.2% | good pharmacokinetic characteristics | 48700 ± 4800 ng·h/mL | 0.859 ± 0.09 mL/min/kg | 0.148 ± 0.01 L/kg | 70.9 ± 3.4% | 138000 ± 6650 ng·h/mL | pharmacokinetic characteristics in monkeys ([3]; conclusion in words): good pharmacokinetic characteristics; AUC(0-t) [3, 7]: 47100 ± 6260 ng·h/mL; clearance [3, 7]: 0.348 ± 0.057 mL/min/kg; Vd ([3]; male, cynomolgus monkey, iv, monkeys, i.v. (1 mg/kg), plasma, read-out: Vdss): 0.151 ± 0.022 L/kg; bioavailability ([3]; male, cynomolgus monkey, plasma, po, monkeys, i.g. (3 mg/kg)): 56.8 ± 4.9%; AUC(0-t) ([3]; male, cynomolgus monkey, po, monkeys, i.g. (3 mg/kg), plasma): 80100 ± 6960 ng·h/mL |
| Cn1cc(NC(=O)c2ccc(N3CCN(Cc4ccc5nc(C(F)F)c(=O)[nH]c5c4F)CC3)c(F)n2)cn1 [Compound 15] | – | good pharmacokinetic characteristics | 16300 ± 1740 ng·h/mL | 2.57 ± 0.29 mL/min/kg | 0.342 ± 0.04 L/kg | ≥ 98% | 67200 ng·h/mL | 6.8 nM | 74.2% | good pharmacokinetic characteristics | 25800 ± 2870 ng·h/mL | 1.63 ± 0.18 mL/min/kg | 0.192 ± 0.022 L/kg | 87.2 ± 14% | 89800 ± 14000 ng·h/mL | Kp at 24 h [2]: 0.916 |
| Cn1cc(C(=O)Nc2ccc(N3CCN(Cc4ccc5nc(C(F)F)c(=O)[nH]c5c4F)CC3)c(F)n2)c(F)n1 [Compound 18, N-(5-(4-((2-(difluoromethyl)-5-fluoro-3-oxo-3,4-dihydroquinoxalin-6-yl)methyl)piperazin-1-yl)-6-fluoropyridin-2-yl)-3-fluoro-1-methyl-1H-pyrazole-4-carboxamide] | < 5 nM | good pharmacokinetic characteristics | 8150 ± 811 ng·h/mL | 5.14 ± 0.53 mL/min/kg | 0.582 ± 0.029 L/kg | ≥ 98% | 32300 ng·h/mL | – | – | good pharmacokinetic characteristics | 22000 ± 838 ng·h/mL | 1.9 ± 0.071 mL/min/kg | 0.294 ± 0.011 L/kg | ≥ 98% | 87600 ± 11700 ng·h/mL | – |
